Activity calls are given as the source filed them. No cut-off for these calls is given here.
Columns and labels:
HepG2 = assay: Antiproliferative activity against human HepG2 cells assessed as inhibition of cell growth incubated for 72 hrs by CCK8 assay; type: functional, cell-based; conditions: HepG2, 72 h
[1] = Half life in Sprague-Dawley rat at 1 mg/kg, iv measured after 24 hrs; type: ADME, organism-based; conditions: in vivo
MGC-803 [2] = assay: Induction of apoptosis in human MGC-803 cells assessed as early apoptotic cells at 8 uM incubated for 36 hrs by annexin V-FITC based flow cytometry analysis (reference value: 2.49 %); type: functional
[3] = Tmax in Sprague-Dawley rat at 1 mg/kg, iv measured after 24 hrs; type: ADME, organism-based; conditions: in vivo
[4] = AUC (0 to t) in Sprague-Dawley rat at 10 mg/kg, po measured after 24 hrs; type: ADME, organism-based; set-up: dose 10 mg/kg, time 24 hrs, route po; conditions: in vivo
SK-OV-3 = assay: Antiproliferative activity against human SK-OV-3 cells assessed as inhibition of cell growth incubated for 72 hrs by CCK8 assay; type: functional, cell-based; conditions: SK-OV-3, 72 h
MGC-803 [5] = assay: Induction of apoptosis in human MGC-803 cells assessed as late apoptotic cells at 4 uM incubated for 36 hrs by annexin V-FITC based flow cytometry analysis (reference value: 2.61 %); type: functional
MGC-803 [6] = assay: Induction of apoptosis in human MGC-803 cells assessed as necrotic cells at 8 uM incubated for 36 hrs by annexin V-FITC based flow cytometry analysis (reference value: […]); type: functional
PC-3 = assay: Antiproliferative activity against human PC-3 cells assessed as inhibition of cell growth incubated for 72 hrs by CCK8 assay; type: functional, cell-based; conditions: PC-3, 72 h
Homo sapiens [7] = species: Homo sapiens; assay: Selectivity index, ratio of IC50 for inhibition of PI3Kbeta (unknown origin) to IC50 for inhibition of PI3Kalpha (unknown origin)
[8] = AUC (0 to infinitive) in Sprague-Dawley rat at 10 mg/kg, po measured after 24 hrs; type: ADME, organism-based; set-up: dose 10 mg/kg, time 24 hrs, route po; conditions: in vivo
MDA-MB-231 = assay: Antiproliferative activity against human MDA-MB-231 cells assessed as inhibition of cell growth incubated for 72 hrs by CCK8 assay; type: functional, cell-based; conditions: MDA-MB-231, 72 h
MCF7 = assay: Antiproliferative activity against human MCF7 cells assessed as inhibition of cell growth incubated for 72 hrs by CCK8 assay; type: functional, cell-based; conditions: MCF7, 72 h
MGC-803 [9] = assay: Induction of apoptosis in human MGC-803 cells assessed as late apoptotic cells at 8 uM incubated for 36 hrs by annexin V-FITC based flow cytometry analysis (reference value: 2.61 %); type: functional
MOLT-4 = assay: Antiproliferative activity against human MOLT-4 cells assessed as inhibition of cell growth incubated for 72 hrs by CCK8 assay; type: functional, cell-based; conditions: MOLT-4, 72 h
MGC-803 [10] = assay: Inhibition of cell invasion in human MGC-803 cells at 2 to 8 uM incubated for 24 hrs by microscopic analysis; type: functional, cell-based; conditions: dose 2-8 µM
MGC-803 [11] = assay: Induction of apoptosis in human MGC-803 cells assessed as necrotic cells at 2 uM incubated for 36 hrs by annexin V-FITC based flow cytometry analysis (reference value: […]); type: functional
Homo sapiens [12] = species: Homo sapiens; assay: Selectivity index, ratio of IC50 for inhibition of PI3Kgamma (unknown origin) to IC50 for inhibition of PI3Kalpha (unknown origin)
K562 = assay: Antiproliferative activity against human K562 cells assessed as inhibition of cell growth incubated for 72 hrs by CCK8 assay; type: functional, cell-based; conditions: K562, 72 h
[13] = Toxicity in BALB/c mouse xenografted with human MG C-803cells assessed as effect on body weight at 10 mg/kg, IP administered every day for 3 week; type: organism-based; conditions: in vivo, 504 h, time 3 weeks
MGC-803 [14] = assay: Induction of apoptosis in human MGC-803 cells assessed as viable cells at 2 uM incubated for 36 hrs by annexin V-FITC based flow cytometry analysis (reference value: 94.51 %); type: functional; conditions: read-out: Activity
MGC-803 [15] = assay: Induction of apoptosis in human MGC-803 cells assessed as late apoptotic cells at 2 uM incubated for 36 hrs by annexin V-FITC based flow cytometry analysis (reference value: 2.61 %); type: functional
MGC-803 [16] = assay: Downregulation of PI3Kalpha protein expression in human MG C-803 cells at 2 to 8 uM by Western blotting analysis; type: functional, cell-based; conditions: dose 2-8 µM
U-251 = assay: Antiproliferative activity against human U-251 cells assessed as inhibition of cell growth incubated for 72 hrs by CCK8 assay; type: functional, cell-based; conditions: U-251, 72 h
[17] = Tmax in Sprague-Dawley rat at 10 mg/kg, po measured after 24 hrs; type: ADME, organism-based; conditions: in vivo
MGC-803 [18] = assay: Antitumor activity against human MGC-803 cells xenografted in BALB/c nude mouse assessed as tumor growth inhibition at 30 mg/kg, po administered every day for 3 weeks in presence of taxol; type: functional; conditions: MGC-803, 504 h, read-out: TGI
MGC-803 [19] = assay: Induction of apoptosis in human MGC-803 cells assessed as viable cells at 8 uM incubated for 36 hrs by annexin V-FITC based flow cytometry analysis (reference value: 94.51 %); type: functional; conditions: read-out: Activity

- IC50 (HepG2): 430 nM
- half-life [1]: 6.29 h
- Tmax [3]: 10.8 s
- AUC(0-t) at 24 h [4]: 36700 ng·h/mL
- IC50 (SK-OV-3): 430 nM
- IC50 (PC-3): 430 nM
- Ratio IC50 (Homo sapiens [7]): 33
- AUC(0-inf) [8]: 38100 ng·h/mL
- IC50 (MDA-MB-231): 430 nM
- IC50 (MCF7): 430 nM
- IC50 (MOLT-4): 430 nM
- Ratio IC50 (Homo sapiens [12]): 29
- IC50 (K562): 430 nM
- IC50 (U-251): 430 nM
- Tmax [17]: 9.33 h
SMILES: Nc1nc2cc(-c3nc(N4CCOCC4)nc(N4CCOCC4)n3)ccc2o1
- Activity (MGC-803 [2]): 57.88%
- Activity (MGC-803 [5]): 5.01%
- Activity (MGC-803 [6]): 1.08%
- Activity (MGC-803 [9]): 3.81%
- inhibition (MGC-803 [10]): Active
- Activity (MGC-803 [11]): 0.95%
- Activity [13]: Non-Toxic
- viability at 2 µM (MGC-803 [14]): 87%
- Activity (MGC-803 [15]): 4.55%
- inhibition (MGC-803 [16]): Active
- inhibition in vivo at 30 mg/kg (MGC-803 [18]): 63.9%
- viability at 8 µM (MGC-803 [19]): 37.2%

Reference: ChEMBL document CHEMBL5143740, “Discovery of Novel Phosphoinositide-3-Kinase α Inhibitors with High Selectivity, Excellent Bioavailability, and Long-Acting Efficacy for Gastric Cancer” (J Med Chem, 2022)
